Laboratory results published in ChEMBL document CHEMBL1129201, “Synthesis and biological activity of 4-azido- and 4-trifluoracetamido-3-chloro-3-deamino-4-deoxydaunorubicin” (Bioorg Med Chem Lett, 1996).

What was measured:
KB 3-1 = experiment: In vitro cytotoxicity using human epidermoid carcinoma (KB-3-1) cells; type: functional, cell-based
KB = experiment: In vitro cytotoxicity using human epidermoid carcinoma (KB-A1) cells; type: functional, cell-based
L1210 = experiment: In vitro cytotoxicity using murine leukemia L1210 cells from american type culture collection.; type: functional, cell-based; conditions: Mus musculus
[1] = Resistant Factor against MDR cell lines. Value expressed as ratio of IC50 on the resistant cell and on the corresponding sensitive cells.; type: functional

| SMILES | IC50 (KB 3-1) [µM] | IC50 (KB) [µM] | IC50 (L1210) [µM] | RF [1] |
| --- | --- | --- | --- | --- |
| COc1cccc2c1C(=O)c1c(O)c3c(c(O)c1C2=O)C[C@@](O)(C(C)=O)C[C@@H]3OC1CC(Cl)C(N=[N+]=[N-])C(C)O1 (stereo partly specified) | 1.61 | 2.76 | 1.37 | 1.7 |
| COc1cccc2c1C(=O)c1c(O)c3c(c(O)c1C2=O)C[C@@](O)(C(C)=O)C[C@@H]3OC1CC(Cl)C(NC(=O)C(F)(F)F)C(C)O1 (stereo partly specified) | 0.55 | 3.79 | 0.5 | 6.9 |
| COc1cccc2c1C(=O)c1c(O)c3c(c(O)c1C2=O)C[C@@](O)(C(C)=O)C[C@@H]3O[C@H]1C[C@H](N)[C@H](O)[C@H](C)O1 [DAUNORUBICIN] | 0.007 | 2.07 | 0.033 | 295.7 |
| COc1cccc2c1C(=O)c1c(O)c3c(c(O)c1C2=O)C[C@@](O)(C(=O)CO)C[C@@H]3O[C@H]1C[C@H](N)[C@H](O)[C@H](C)O1 [DOXORUBICIN] | 0.021 | 7.01 | 0.033 | 333.8 |
